# Results taken from patent US20220259556A1, “METHOD FOR OBTAINING IMMUNO-SUPPRESSIVE DENDRITIC CELLS” (Transimmune AG, priority 2013, published 2022).
# “Also recorded” adds a separate entry of the source. Ends that are not written are not given here.
# Legend:
# platelets = assay: Platelet adhesion studies in Vena8 flow chamber; format: cell-based, human
# Experimental: For experiments not involving the collection and phenotyping of cells post-flow, Vena8 biochips (Cellix Ltd, Dublin, Ireland) were used to generate laminar flow. The volumetric flow path for a channel of the Vena8 biochips measured 20000×400×100 microns (length×width×height). Protein coating of these chips is described in the appropriate section below.
# Platelet adhesion experiments were performed using the Vena8 flow chamber described above. Fibrinogen and fibronectin (Sigma) were dissolved in PBS to a final concentration of 200 mcg/ml. Channels of the Vena8 chips were incubated at room temperature in a humidified chamber for 2 hours with the protein solution, autologous plasma, or PBS alone. The channels were washed with 5× the volume RPMI. Platelet-rich-plasma was then perfused through the protein-coated channel at the indicated shear-stress, held constant. For each channel, still images were acquired exactly 90 seconds into the experiment at 4 pre-defined low power fields located along the flow path (fields were centered at 2500, 7500, 12500, and 17500 microns from the start point of infusion).
# Some experiments involved pre-treating platelet-rich-plasma with protein fragments prior to infusion through the channels. Small RGD peptides, containing the amino-acid sequence Arg-Gly-Asp-Ser; DRG peptides, contain the amino-acid sequence Ser-Asp-Gly-Arg; or fragment 400-411 of fibrinogen, containing the amino-acid sequence His-His-Leu-Gly-Gly-Ala-Lys-Gln-Ala-Gly-Asp-Val, were incubated at a concentration of 2 mM with PRP for 20 minutes at room temperature. The PRP was then perfused through the channels as previously described.
# monocytes = assay: Static co-cultures of platelets with monocytes; format: cell-based, human; conditions: static conditions, 18 hours
# Experimental: Experiments involving co-cultures of monocytes with additional platelets were performed as described in the Overnight Culture section, with a few necessary modifications. Following Ficoll-Hypaque separation, mononuclear cells were resuspended in 30% AB serum/RMPI to a final concentration of 10×10^6 cells/ml, of which 1 ml was allocated to each well of a 16-well plate. An additional 1 ml of platelets (suspended in RPMI, at 2× the desired final concentration) or RPMI without platelets was then added to each well. To activate platelets, 500 μl containing 2 units of thrombin was added to half the wells, and 500 μl of RPMI was added to the others to balance the volume. Cells were then incubated as described previously.
# lymphocytes = assay: Apoptosis of lymphocytes (Annexin-V/7-AAD); format: cell-based, human; conditions: 1 J/cm^2 and 100 ng/mL
# Experimental: (§1) Lymphocytes were treated with 8-MOP (100 ng/mL) and UVA (1 J/cm^2), washed with PBS, and co-cultured in complete media at 37° C. and 5% CO2 with either PUVA-treated or untreated-MoDC in a ratio of 5 or 10 lymphocytes to 1 MoDC. MoDC treated for 24 hr with 100 nM dexamethasone (Sigma) served as the positive control group. After 24 hr, cells were harvested and MoDC were re-purified. […] CD11c^+ MoDC were re-plated at 0.5-1.0×10^6 cells/mL in complete media and stimulated with 100 ng/mL LPS (Sigma). 24 hr after LPS stimulation, cells were harvested for RNA isolation and immunophenotyping, and supernatants were collected for cytokine quantification.
# Monoclonal antibodies included HLA-DR, CD80, CD83, CD3, CD86, CD14, CD11c and GILZ. Antibodies were obtained from Beckman-Coulter and eBioscience and were used at their pre-determined optimal dilutions. Apoptosis was assessed using the Annexin-V Apoptosis Detection Kit (eBioscience), with Annexin-V recognizing phosphatidylserine (PS) on the surface of apoptotic cells. 7-AAD substituted for PI as the cell viability dye. […] Background staining was established with appropriate isotype and fluorescence minus one controls. Immunofluorescence was analyzed using a FACSCalibur L (BD Biosciences) within 2 hr of fixation with 2% paraformaldehyde. […]
# MoDC = assay: Immunophenotyping of MoDC (HLA-DR, CD80, CD83, CD86, intracellular GILZ); format: cell-based, human; conditions: product of 8-MOP and UVA exceeded 100; 24 hr after PUVA
# Experimental: as §1
# Monoclonal antibodies included HLA-DR, CD80, CD83, CD3, CD86, CD14, CD11c and GILZ. Antibodies were obtained from Beckman-Coulter and eBioscience and were used at their pre-determined optimal dilutions. Apoptosis was assessed using the Annexin-V Apoptosis Detection Kit (eBioscience), with Annexin-V recognizing phosphatidylserine (PS) on the surface of apoptotic cells. 7-AAD substituted for PI as the cell viability dye. Cells displaying an Annexin-V^+/7-AAD^− phenotype were classified as early apoptotic cells, and cells displaying an Annexin-V^+/7-AAD^+ phenotype were classified as late apoptotic cells. Dual membrane and intracytoplasmic staining was performed using the IntraPrep fix and permeabilization kit (Beckman-Coulter). Background staining was established with appropriate isotype and fluorescence minus one controls. Immunofluorescence was analyzed using a FACSCalibur L (BD Biosciences) within 2 hr of fixation with 2% paraformaldehyde. A minimum of 10,000 events were collected for each group.
# GILZ = GILZ expression in plate-passed PBMC treated with 8-MOP and UVA; format: cell-based; conditions: monocytes physically activated by passage through device, then 8-MOP and UVA
# Experimental: Monocytes were passed through a device derived from the Therakos system. The dimensions of the flow chamber were 30 mm width, 1600 mm length, and 1 mm height. In brief, a blood sample was spun at low speed through a Ficoll gradient to obtain e.g. 80 ml of sample with a concentration of peripheral blood mononuclear cells (PBMC) of e.g. 1.5*10^6 cells/ml. The chamber was pre-coated with platelets. The sample was passed through the chamber for 60 min at a flow rate of about 24 ml/min corresponding to a shear stress of about 0.13 Pa. The collected activated monocytes were spun at low speed and resuspended in a small volume of medium comprising 8-MOP and irradiated with […], incubated for a day and used for further analysis (Day 1PBMC+PP). As a control PBMCs were not passed through the device and incubated for a day (Day 1 PBMC). Further, PBMC were analyzed directly after harvest through a Ficoll gradient (Day0 PBMC). Day 1 PBMC+PP were then further treated with 8-MOP and UVA (PUVA). The cells and controls were then analyzed for expression of GILZ.
molecule,measurement,setting,value
HHLGGAKQAGDV [fragment 400-411 of fibrinogen],Platelet adhesion to fibrinogen-coated plates,"platelets; platelets (PRP) pre-incubated with 2 mM peptide for 20 minutes, flow, listed as gamma fragments",decreased
thrombin,Monocyte differentiation versus cultures with platelets not activated by thrombin,monocytes,did not cause a discernible difference
"COc1c2occc2cc2ccc(=O)oc12 [8-MOP, 8-methoxypsoralen]",Time to Annexin-V display by lymphocytes,lymphocytes,2 h
same,Reduction of CD80 cell surface expression,MoDC,30%
same,Reduction of CD83 cell surface expression,MoDC,31%
same,Reduction of CD86 cell surface expression,MoDC,54%
same,GILZ expression / differentiation of activated monocytes,GILZ,can be channeled into immuno-suppressive dendritic cells; also recorded: increase of expression of GILZ
fibrinogen,Platelet adhesion to plates pre-coated with the protein,"platelets; unactivated platelets in flow, wall shear stress 0.2 to 6.0 dyne/cm^2",highest concentrations of platelets adhered
"Arg-Gly-Asp-Ser (RGDS; printed: Arg-Gly-Asp-Ser) [RGD peptides, Small RGD peptides]",Platelet adhesion to fibronectin-coated plates,"platelets; platelets (PRP) pre-incubated with 2 mM peptide for 20 minutes, flow",decreased
